# According to the NIST ThermoML archive (doi:10.1021/acs.jced.9b00442):
# Numbers after ± are expanded uncertainties.
# Tests used:
# [1] = refractive index (Na D-line) (dimensionless); details: 100 kPa, Liquid, Standard Abbe refractometry
# [2] = 100 kPa, Liquid; for electrical conductivity: Frequency=0.0006 MHz, Alternating current cell with electrodes; for viscosity: Concentric cylinders viscometry; for mass density: Vibrating tube method
smiles,measurement,setting,value
CC[N+](C)(C)CCCO.O=S(=O)([N-]S(=O)(=O)C(F)(F)F)C(F)(F)F,refractive index,[1]; 283.15 K,1.4253 ± 0.0017
same,refractive index,[1]; 288.15 K,1.4241 ± 0.0017
same,refractive index,[1]; 293.15 K,1.4228 ± 0.0017
same,refractive index,[1]; 298.15 K,1.4215 ± 0.0017
same,refractive index,[1]; 303.15 K,1.4203 ± 0.0017
same,refractive index,[1]; 308.15 K,1.419 ± 0.0017
same,refractive index,[1]; 313.15 K,1.4176 ± 0.0017
same,refractive index,[1]; 318.15 K,1.4164 ± 0.0017
same,refractive index,[1]; 323.15 K,1.4151 ± 0.0017
same,refractive index,[1]; 328.15 K,1.4139 ± 0.0017
same,refractive index,[1]; 333.15 K,1.4126 ± 0.0017
same,refractive index,[1]; 338.15 K,1.4114 ± 0.0017
same,refractive index,[1]; 343.15 K,1.4101 ± 0.0017
same,refractive index,[1]; 348.15 K,1.4089 ± 0.0017
same,refractive index,[1]; 353.15 K,1.4076 ± 0.0017
same,refractive index,[1]; 358.15 K,1.4064 ± 0.0017
same,electrical conductivity,[2]; 283.15 K,0.049 ± 0.001 S/m
same,viscosity,[2]; 288.15 K,314 ± 14 mPa·s
same,electrical conductivity,[2]; 288.15 K,0.069 ± 0.001 S/m
same,mass density,[2]; 288.15 K,1472.2 ± 1.2 kg/m3
same,mass density,[2]; 289.15 K,1471.4 ± 1.2 kg/m3
same,mass density,[2]; 290.15 K,1470.5 ± 1.2 kg/m3
same,mass density,[2]; 291.15 K,1469.6 ± 1.2 kg/m3
same,mass density,[2]; 292.15 K,1468.7 ± 1.2 kg/m3
same,viscosity,[2]; 293.15 K,220.1 ± 9.8 mPa·s
same,electrical conductivity,[2]; 293.15 K,0.095 ± 0.002 S/m
same,mass density,[2]; 293.15 K,1467.8 ± 1.2 kg/m3
same,mass density,[2]; 294.15 K,1466.9 ± 1.2 kg/m3
same,mass density,[2]; 295.15 K,1466.1 ± 1.2 kg/m3
same,mass density,[2]; 296.15 K,1465.2 ± 1.2 kg/m3
same,mass density,[2]; 297.15 K,1464.3 ± 1.2 kg/m3
same,viscosity,[2]; 298.15 K,166 ± 7.1 mPa·s
same,electrical conductivity,[2]; 298.15 K,0.125 ± 0.003 S/m
same,mass density,[2]; 298.15 K,1463.4 ± 1.2 kg/m3
same,mass density,[2]; 299.16 K,1462.5 ± 1.2 kg/m3
same,mass density,[2]; 300.16 K,1461.7 ± 1.2 kg/m3
same,mass density,[2]; 301.15 K,1460.8 ± 1.2 kg/m3
same,mass density,[2]; 302.15 K,1459.9 ± 1.2 kg/m3
same,viscosity,[2]; 303.15 K,125.4 ± 5.3 mPa·s
same,electrical conductivity,[2]; 303.15 K,0.162 ± 0.003 S/m
same,mass density,[2]; 303.15 K,1459 ± 1.2 kg/m3
same,mass density,[2]; 304.15 K,1458.2 ± 1.2 kg/m3
same,mass density,[2]; 305.15 K,1457.3 ± 1.2 kg/m3
same,mass density,[2]; 306.15 K,1456.4 ± 1.2 kg/m3
same,mass density,[2]; 307.15 K,1455.5 ± 1.2 kg/m3
same,viscosity,[2]; 308.15 K,96.7 ± 4 mPa·s
same,electrical conductivity,[2]; 308.15 K,0.204 ± 0.004 S/m
same,mass density,[2]; 308.15 K,1454.7 ± 1.2 kg/m3
same,mass density,[2]; 309.15 K,1453.8 ± 1.2 kg/m3
same,mass density,[2]; 310.15 K,1452.9 ± 1.2 kg/m3
same,mass density,[2]; 311.15 K,1452 ± 1.2 kg/m3
same,mass density,[2]; 312.15 K,1451.2 ± 1.2 kg/m3
same,viscosity,[2]; 313.15 K,76.8 ± 3.1 mPa·s
same,electrical conductivity,[2]; 313.15 K,0.253 ± 0.005 S/m
same,mass density,[2]; 313.15 K,1450.3 ± 1.2 kg/m3
same,mass density,[2]; 314.15 K,1449.4 ± 1.2 kg/m3
same,mass density,[2]; 315.15 K,1448.6 ± 1.2 kg/m3
same,mass density,[2]; 316.15 K,1447.7 ± 1.2 kg/m3
